ChEMBL document CHEMBL3046711, “Novel glitazones: glucose uptake and cytotoxic activities, and structureactivity relationships” (2012)
Converted amounts (≈) assume the structure as drawn.

What was measured:
Format in all cases: functional
Hemi-diaphragm [1] = test: Induction of glucose uptake in Rattus norvegicus Wistar (rat) hemi-diaphragm at 2 mg after 45 min by GOD/POD enzymatic method
Hemi-diaphragm [2] = test: Induction of glucose uptake in Rattus norvegicus Wistar (rat) hemi-diaphragm at 2 mg after 45 min by GOD/POD enzymatic method in presence of insulin
A549 = test: Cytotoxicity against Homo sapiens (human) A549 cells after 3 days by SRB assay; details: A549, 72 h

`O=C1NC(=O)/C(=C/c2ccc(OCCOc3ccccc3Cl)cc2)S1` was tested, and the Activity (Hemi-diaphragm [1]) was 6 mg/dL, the Activity (Hemi-diaphragm [2]) was 22.5 mg/dL and the CC50 (A549) was 100 µg/mL (≈ 266 µM).

`CN(CCOc1ccc(CC2SC(=O)NC2=O)cc1)c1ccccn1` (stereo not given) [ROSIGLITAZONE] gave an Activity (Hemi-diaphragm [1]) of 15.5 mg/dL and an Activity (Hemi-diaphragm [2]) of 37 mg/dL.
